According to ChEMBL document CHEMBL5442175, “EUbOPEN Chemogenomics Library - PDSP Secondary Binding” (2024):

How the values were obtained:
[1] = target: Sodium-dependent noradrenaline transporter (Homo sapiens, UniProt P23975); assay: (§1) PDSP Secondary Binding target: SLC6A2 - Compounds are tested at 10 uM concentration, plate are incubated at room temperature in the dark for 90 minutes. Reaction are stopped by vacuum filtration onto 0.3% polyethyleneimine soaked filter mats using Filtermate harvester. Scintillation cocktail is then melted onto microwave-dried filters on a hot plate and the radio activity is counted in Microbia counter.
[2] = target: Sodium-dependent dopamine transporter (Homo sapiens, UniProt Q01959); assay: as §1, with “SLC6A3” for “SLC6A2”
[3] = target: Sigma intracellular receptor 2 (Homo sapiens, UniProt Q5BJF2); assay: as §1, with “TMEM97” for “SLC6A2”
[4] = target: Sodium-dependent serotonin transporter (Homo sapiens, UniProt P31645); assay: as §1, with “SLC6A4” for “SLC6A2”
[5] = target: T1, Alpha-1B adrenergic receptor (Homo sapiens, UniProt P35368); assay: as §1, with “ADRA1B” for “SLC6A2”
T1 sequence (P35368 whole entry): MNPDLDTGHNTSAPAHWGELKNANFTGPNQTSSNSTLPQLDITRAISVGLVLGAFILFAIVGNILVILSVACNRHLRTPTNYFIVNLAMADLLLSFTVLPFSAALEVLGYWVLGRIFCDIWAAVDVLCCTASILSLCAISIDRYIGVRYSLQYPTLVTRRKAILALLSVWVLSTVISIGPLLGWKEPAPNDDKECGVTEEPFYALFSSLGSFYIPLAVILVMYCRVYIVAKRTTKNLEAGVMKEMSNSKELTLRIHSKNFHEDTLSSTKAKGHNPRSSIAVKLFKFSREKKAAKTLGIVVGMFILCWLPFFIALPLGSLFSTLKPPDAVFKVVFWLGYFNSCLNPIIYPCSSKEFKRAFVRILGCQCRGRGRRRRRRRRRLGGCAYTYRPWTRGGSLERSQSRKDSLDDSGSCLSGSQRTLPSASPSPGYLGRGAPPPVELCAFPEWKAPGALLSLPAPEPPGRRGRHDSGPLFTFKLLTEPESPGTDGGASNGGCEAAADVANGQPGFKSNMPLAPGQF

[6] = target: D(3) dopamine receptor (Homo sapiens, UniProt P35462); assay: as §1, with “DRD3” for “SLC6A2”
[7] = target: T2, Alpha-1D adrenergic receptor (Homo sapiens, UniProt P25100); assay: as §1, with “ADRA1D” for “SLC6A2”
T2 sequence (P25100 whole entry): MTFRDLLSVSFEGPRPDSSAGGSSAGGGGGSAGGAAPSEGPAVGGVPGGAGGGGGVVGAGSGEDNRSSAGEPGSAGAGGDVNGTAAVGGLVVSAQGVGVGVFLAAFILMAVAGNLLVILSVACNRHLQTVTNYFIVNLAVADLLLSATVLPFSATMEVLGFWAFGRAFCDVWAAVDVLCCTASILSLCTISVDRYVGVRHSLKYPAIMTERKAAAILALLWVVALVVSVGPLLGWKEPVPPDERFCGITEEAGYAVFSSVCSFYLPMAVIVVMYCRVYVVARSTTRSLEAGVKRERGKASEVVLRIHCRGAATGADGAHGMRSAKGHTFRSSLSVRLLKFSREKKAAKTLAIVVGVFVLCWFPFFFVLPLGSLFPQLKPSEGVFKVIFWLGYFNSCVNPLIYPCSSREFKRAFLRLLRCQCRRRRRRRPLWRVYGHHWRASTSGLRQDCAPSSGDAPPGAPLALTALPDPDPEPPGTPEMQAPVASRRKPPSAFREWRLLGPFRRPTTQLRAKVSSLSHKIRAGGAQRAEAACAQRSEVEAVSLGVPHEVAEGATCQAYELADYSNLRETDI

[8] = target: T3, 5-hydroxytryptamine receptor 2C (Homo sapiens, UniProt P28335); assay: as §1, with “HTR2C” for “SLC6A2”
T3 sequence (P28335 whole entry): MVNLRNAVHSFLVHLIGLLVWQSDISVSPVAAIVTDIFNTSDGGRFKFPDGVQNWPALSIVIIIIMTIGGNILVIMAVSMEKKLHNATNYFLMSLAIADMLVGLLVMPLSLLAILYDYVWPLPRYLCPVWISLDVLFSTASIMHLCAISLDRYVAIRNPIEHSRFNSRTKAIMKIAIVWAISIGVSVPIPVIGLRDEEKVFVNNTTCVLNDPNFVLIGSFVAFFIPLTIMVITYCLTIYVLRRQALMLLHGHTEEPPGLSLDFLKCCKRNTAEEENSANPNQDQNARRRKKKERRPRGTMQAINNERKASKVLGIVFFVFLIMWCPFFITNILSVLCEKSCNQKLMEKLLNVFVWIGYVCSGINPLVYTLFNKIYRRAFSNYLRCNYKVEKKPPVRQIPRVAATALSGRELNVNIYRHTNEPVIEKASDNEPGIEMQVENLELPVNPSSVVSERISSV

[9] = target: T4, Alpha-1A adrenergic receptor (Homo sapiens, UniProt P35348); assay: as §1, with “ADRA1A” for “SLC6A2”
T4 sequence (P35348 whole entry): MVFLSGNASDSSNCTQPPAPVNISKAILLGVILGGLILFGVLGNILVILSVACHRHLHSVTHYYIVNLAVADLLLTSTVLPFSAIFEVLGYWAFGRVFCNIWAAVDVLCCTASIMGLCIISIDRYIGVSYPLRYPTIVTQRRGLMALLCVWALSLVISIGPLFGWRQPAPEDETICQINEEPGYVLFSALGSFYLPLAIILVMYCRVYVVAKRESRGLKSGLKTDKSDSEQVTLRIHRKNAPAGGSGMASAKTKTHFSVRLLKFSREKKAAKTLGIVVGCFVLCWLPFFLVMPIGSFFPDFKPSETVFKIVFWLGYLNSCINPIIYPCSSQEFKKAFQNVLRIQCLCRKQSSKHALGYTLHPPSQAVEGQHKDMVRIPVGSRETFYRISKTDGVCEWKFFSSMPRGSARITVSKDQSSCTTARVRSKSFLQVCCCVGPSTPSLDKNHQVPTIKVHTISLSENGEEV

[10] = target: 5-hydroxytryptamine receptor 2A (Homo sapiens, UniProt P28223); assay: as §1, with “HTR2A” for “SLC6A2”
[11] = target: 5-hydroxytryptamine receptor 6 (Homo sapiens, UniProt P50406); assay: as §1, with “HTR6” for “SLC6A2”
[12] = target: Beta-2 adrenergic receptor (Homo sapiens, UniProt P07550); assay: as §1, with “ADRB2” for “SLC6A2”
[13] = target: 5-hydroxytryptamine receptor 1B (Homo sapiens, UniProt P28222); assay: as §1, with “HTR1B” for “SLC6A2”
[14] = target: 5-hydroxytryptamine receptor 5A (Homo sapiens, UniProt P47898); assay: as §1, with “HTR5A” for “SLC6A2”
[15] = target: T5, Alpha-2A adrenergic receptor (Homo sapiens, UniProt P08913); assay: as §1, with “ADRA2A” for “SLC6A2”
T5 sequence (P08913 whole entry): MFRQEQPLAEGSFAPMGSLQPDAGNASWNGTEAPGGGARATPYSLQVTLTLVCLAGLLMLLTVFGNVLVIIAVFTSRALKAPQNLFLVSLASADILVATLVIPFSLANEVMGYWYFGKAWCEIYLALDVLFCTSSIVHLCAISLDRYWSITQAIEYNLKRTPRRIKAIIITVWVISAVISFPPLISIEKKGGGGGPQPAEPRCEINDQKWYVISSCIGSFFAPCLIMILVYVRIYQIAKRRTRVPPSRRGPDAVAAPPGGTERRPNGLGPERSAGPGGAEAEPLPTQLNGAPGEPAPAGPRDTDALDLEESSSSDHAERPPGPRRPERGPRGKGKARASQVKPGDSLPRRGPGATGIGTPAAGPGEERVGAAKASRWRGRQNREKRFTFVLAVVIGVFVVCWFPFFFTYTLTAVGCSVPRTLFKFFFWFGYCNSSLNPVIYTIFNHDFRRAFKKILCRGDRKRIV

[16] = target: D(2) dopamine receptor (Homo sapiens, UniProt P14416); assay: as §1, with “DRD2” for “SLC6A2”
[17] = target: 5-hydroxytryptamine receptor 1E (Homo sapiens, UniProt P28566); assay: as §1, with “HTR1E” for “SLC6A2”
[18] = target: 5-hydroxytryptamine receptor 1D (Homo sapiens, UniProt P28221); assay: as §1, with “HTR1D” for “SLC6A2”
[19] = target: 5-hydroxytryptamine receptor 7 (Homo sapiens, UniProt P34969); assay: as §1, with “HTR7” for “SLC6A2”
[20] = target: T6, D(4) dopamine receptor (Homo sapiens, UniProt P21917); assay: as §1, with “DRD4” for “SLC6A2”
T6 sequence (P21917 whole entry): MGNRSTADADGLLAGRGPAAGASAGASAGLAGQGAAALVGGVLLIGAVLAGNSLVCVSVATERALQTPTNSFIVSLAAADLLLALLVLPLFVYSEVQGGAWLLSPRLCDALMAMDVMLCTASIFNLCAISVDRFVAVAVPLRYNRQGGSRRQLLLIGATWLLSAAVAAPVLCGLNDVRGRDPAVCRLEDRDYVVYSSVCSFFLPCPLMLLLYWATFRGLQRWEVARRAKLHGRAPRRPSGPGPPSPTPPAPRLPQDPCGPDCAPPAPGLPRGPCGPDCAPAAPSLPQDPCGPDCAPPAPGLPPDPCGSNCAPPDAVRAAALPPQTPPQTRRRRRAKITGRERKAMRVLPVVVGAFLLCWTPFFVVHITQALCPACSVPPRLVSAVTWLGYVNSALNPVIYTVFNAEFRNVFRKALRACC

[21] = target: Sigma non-opioid intracellular receptor 1 (Homo sapiens, UniProt Q99720); assay: as §1, with “SIGMAR1” for “SLC6A2”
[22] = target: 5-hydroxytryptamine receptor 2B (Homo sapiens, UniProt P41595); assay: as §1, with “HTR2B” for “SLC6A2”
[23] = target: Beta-3 adrenergic receptor (Homo sapiens, UniProt P13945); assay: as §1, with “ADRB3” for “SLC6A2”
[24] = target: Translocator protein (Homo sapiens, UniProt P30536); assay: as §1, with “TSPO” for “SLC6A2”
Translocator protein, sequence (P30536 whole entry): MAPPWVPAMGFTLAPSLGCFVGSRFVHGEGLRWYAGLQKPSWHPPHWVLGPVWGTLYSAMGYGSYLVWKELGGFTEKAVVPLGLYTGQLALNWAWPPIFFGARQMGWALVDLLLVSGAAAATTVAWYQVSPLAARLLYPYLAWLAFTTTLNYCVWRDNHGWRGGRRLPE

Sigma intracellular receptor 2, sequence (Q5BJF2 whole entry): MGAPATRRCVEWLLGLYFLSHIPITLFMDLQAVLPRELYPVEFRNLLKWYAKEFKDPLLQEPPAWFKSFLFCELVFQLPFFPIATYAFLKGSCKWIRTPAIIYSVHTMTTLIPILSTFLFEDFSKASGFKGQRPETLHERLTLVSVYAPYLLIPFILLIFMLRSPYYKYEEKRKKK
Sodium-dependent noradrenaline transporter, sequence (P23975 whole entry): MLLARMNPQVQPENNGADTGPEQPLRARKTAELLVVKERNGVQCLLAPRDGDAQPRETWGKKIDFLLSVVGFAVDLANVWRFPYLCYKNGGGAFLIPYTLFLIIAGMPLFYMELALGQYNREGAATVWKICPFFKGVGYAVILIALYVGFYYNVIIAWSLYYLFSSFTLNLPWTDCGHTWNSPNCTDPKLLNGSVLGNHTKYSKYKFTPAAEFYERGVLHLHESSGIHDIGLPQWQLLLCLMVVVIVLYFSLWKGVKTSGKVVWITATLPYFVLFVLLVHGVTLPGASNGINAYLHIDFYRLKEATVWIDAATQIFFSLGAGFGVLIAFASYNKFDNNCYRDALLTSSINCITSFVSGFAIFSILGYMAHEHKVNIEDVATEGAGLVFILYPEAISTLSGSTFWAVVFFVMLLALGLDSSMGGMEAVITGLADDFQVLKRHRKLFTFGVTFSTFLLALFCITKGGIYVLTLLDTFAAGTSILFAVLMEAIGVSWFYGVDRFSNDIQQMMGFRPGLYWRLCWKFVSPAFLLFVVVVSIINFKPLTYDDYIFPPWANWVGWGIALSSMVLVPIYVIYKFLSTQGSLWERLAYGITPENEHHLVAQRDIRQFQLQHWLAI
Beta-2 adrenergic receptor, sequence (P07550 whole entry): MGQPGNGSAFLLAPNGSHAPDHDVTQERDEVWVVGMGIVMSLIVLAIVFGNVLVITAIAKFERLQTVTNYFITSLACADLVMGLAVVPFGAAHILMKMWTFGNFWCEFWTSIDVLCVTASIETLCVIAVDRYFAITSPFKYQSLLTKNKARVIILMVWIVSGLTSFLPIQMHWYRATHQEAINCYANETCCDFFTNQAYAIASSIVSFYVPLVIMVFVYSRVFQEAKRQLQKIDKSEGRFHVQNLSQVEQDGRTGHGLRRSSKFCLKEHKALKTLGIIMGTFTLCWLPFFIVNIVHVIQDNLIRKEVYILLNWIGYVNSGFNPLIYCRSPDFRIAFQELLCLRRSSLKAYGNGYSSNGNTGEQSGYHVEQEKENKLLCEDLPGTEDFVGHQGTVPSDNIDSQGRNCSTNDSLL
5-hydroxytryptamine receptor 6, sequence (P50406 whole entry): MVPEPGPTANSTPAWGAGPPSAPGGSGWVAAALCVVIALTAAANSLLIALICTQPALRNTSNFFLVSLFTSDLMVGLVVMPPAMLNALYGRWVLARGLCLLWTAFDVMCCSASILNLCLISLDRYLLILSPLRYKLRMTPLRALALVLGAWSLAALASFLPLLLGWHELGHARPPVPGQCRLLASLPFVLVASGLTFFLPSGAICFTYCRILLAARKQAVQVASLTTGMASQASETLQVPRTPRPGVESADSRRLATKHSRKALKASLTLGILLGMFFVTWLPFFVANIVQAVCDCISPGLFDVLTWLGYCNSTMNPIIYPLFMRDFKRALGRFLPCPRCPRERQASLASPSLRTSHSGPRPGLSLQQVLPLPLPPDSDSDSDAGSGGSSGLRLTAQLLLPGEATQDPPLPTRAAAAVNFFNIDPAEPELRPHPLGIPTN
5-hydroxytryptamine receptor 2A, sequence (P28223 whole entry): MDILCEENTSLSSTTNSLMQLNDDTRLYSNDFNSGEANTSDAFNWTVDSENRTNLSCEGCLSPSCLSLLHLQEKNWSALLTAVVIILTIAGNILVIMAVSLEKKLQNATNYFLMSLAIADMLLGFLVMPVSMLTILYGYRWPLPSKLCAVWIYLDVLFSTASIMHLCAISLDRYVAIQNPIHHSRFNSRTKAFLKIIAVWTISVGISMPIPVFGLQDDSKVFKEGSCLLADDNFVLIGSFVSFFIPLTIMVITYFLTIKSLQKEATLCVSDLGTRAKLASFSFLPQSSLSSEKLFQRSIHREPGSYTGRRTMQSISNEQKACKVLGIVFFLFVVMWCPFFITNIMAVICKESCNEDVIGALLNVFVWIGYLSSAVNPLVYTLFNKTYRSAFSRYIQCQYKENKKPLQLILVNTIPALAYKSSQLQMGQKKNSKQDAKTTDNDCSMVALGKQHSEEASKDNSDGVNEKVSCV
Sodium-dependent serotonin transporter, sequence (P31645 whole entry): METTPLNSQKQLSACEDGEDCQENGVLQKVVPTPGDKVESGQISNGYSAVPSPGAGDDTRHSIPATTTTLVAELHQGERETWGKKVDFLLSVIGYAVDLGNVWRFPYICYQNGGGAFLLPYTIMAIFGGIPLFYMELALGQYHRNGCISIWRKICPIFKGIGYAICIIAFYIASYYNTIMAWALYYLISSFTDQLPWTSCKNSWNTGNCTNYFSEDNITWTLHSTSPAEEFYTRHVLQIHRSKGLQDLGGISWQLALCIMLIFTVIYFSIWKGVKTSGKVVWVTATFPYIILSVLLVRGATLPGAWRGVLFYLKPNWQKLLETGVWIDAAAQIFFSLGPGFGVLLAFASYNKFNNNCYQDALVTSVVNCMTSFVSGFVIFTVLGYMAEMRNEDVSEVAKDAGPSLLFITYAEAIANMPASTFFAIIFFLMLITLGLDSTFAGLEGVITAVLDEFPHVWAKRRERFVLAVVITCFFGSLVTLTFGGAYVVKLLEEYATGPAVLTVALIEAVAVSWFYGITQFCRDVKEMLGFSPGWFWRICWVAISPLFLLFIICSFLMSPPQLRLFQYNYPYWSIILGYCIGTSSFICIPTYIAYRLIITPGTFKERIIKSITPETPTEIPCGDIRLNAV
5-hydroxytryptamine receptor 2B, sequence (P41595 whole entry): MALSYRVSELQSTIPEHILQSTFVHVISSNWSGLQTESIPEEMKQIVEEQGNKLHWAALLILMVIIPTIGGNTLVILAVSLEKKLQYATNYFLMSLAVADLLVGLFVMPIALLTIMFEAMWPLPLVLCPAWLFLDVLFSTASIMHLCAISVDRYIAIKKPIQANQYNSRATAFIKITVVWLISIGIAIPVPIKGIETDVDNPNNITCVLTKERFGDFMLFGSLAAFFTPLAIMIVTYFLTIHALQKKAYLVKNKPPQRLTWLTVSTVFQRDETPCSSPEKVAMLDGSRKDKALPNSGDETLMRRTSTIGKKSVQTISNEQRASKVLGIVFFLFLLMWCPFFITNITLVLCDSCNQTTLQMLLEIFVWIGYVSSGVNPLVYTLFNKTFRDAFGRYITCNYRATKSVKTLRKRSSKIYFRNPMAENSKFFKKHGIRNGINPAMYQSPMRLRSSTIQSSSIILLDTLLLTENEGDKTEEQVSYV
5-hydroxytryptamine receptor 1D, sequence (P28221 whole entry): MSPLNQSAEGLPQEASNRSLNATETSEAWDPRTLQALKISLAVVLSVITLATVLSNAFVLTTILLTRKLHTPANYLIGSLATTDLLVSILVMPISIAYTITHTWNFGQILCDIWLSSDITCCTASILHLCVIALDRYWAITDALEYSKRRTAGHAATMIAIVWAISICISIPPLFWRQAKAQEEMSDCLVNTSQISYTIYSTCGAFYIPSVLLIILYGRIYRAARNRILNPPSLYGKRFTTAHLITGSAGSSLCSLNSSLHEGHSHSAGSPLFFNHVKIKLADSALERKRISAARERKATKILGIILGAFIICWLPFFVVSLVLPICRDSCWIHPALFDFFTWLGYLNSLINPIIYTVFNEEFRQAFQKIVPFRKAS
D(3) dopamine receptor, sequence (P35462 whole entry): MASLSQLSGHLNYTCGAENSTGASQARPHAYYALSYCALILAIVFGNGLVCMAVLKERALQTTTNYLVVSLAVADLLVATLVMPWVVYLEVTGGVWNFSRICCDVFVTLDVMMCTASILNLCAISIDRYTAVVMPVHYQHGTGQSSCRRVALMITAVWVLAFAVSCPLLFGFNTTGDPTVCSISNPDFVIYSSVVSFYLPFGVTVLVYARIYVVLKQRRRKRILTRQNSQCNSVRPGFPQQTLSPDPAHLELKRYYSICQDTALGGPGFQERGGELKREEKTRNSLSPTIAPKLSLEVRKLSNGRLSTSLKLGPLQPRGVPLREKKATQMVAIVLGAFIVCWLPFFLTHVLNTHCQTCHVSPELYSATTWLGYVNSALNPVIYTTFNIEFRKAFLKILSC
5-hydroxytryptamine receptor 5A, sequence (P47898 whole entry): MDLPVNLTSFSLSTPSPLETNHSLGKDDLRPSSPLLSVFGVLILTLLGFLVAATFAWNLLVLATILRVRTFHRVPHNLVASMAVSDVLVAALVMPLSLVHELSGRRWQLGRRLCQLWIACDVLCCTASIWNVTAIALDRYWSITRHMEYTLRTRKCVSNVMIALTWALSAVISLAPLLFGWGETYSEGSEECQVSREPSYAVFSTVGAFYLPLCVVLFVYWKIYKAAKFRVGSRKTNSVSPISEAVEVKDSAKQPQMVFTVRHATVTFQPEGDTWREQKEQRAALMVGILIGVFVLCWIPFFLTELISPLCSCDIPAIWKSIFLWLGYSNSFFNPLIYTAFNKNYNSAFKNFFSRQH
Beta-3 adrenergic receptor, sequence (P13945 whole entry): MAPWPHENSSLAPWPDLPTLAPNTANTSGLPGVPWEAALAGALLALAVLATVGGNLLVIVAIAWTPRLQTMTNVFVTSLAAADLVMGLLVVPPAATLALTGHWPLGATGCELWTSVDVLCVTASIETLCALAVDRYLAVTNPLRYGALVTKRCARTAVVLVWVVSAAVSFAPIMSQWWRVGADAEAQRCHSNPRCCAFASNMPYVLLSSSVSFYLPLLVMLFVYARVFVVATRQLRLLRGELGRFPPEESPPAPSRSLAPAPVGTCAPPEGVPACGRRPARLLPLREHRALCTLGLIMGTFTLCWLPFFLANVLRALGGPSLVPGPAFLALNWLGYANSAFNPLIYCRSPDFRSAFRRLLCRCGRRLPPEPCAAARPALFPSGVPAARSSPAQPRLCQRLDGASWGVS

Ki [1] [nM]	Ki [3] [nM]	Ki [4] [nM]	Ki [6] [nM]	Ki [8] [nM]	Ki [10] [nM]	Ki [12] [nM]	Ki [18] [nM]	Ki [22] [nM]	SMILES	Ki [11] [nM]	Ki [14] [nM]	other results
569	107	770	1340	1800	2020	106			CCc1cc2c(cc1CC)CC(NC[C@H](O)c1ccc(O)c3[nH]c(=O)ccc13)C2 [INDACATEROL]	> 10000		Ki [2]: 75 nM; Ki [5]: 4320 nM; Ki [7]: 731 nM; Ki [9]: 356 nM
	242					5210			CN(C)S(=O)(=O)c1ccc(NC(=S)N2CCC(C(O)(c3ccccc3)c3ccccc3)CC2)cc1			Ki [23]: 3500 nM; Ki [24]: 969 nM
	1720		498			7540	1610	400	CS(=O)(=O)NC[C@H]1CC[C@H](Nc2nc3c(s2)CCSc2ccccc2-3)CC1		1040	

The next lines start with the molecule.

SMILES	Ki [1] [nM]	Ki [3] [nM]	Ki [4] [nM]	Ki [6] [nM]	Ki [8] [nM]	Ki [10] [nM]	Ki [12] [nM]	Ki [18] [nM]	Ki [22] [nM]	Ki [11] [nM]	Ki [14] [nM]	other results
NCCc1c[nH]c2ccc(C(N)=O)cc12	2650	4570								325	8.64	Ki [13]: 11.2 nM; Ki [15]: 2160 nM; Ki [16]: > 10000 nM; Ki [17]: 949 nM
N#Cc1c[nH]c2c(C(=O)N3CCN(CCc4ccc(F)cc4)CC3)cccc12 [PRUVANSERIN]	2520	1180	1100		1470	2.64	> 10000	588	1040			Ki [19]: 2390 nM; Ki [20]: 181 nM; Ki [21]: 178 nM
